Structures can show the parent of a compound that is named as a salt.

In turn, `COc1ccc(CNc2nc(CCC(=O)O)nc3sc4c(c23)CCCC4)cc1Cl` (as salt: salt) [Example 2 (formula I-I), 3-[4-(3-chloro-4-methoxybenzylamino)-5,6,7,8-tetrahydro-[1]-benzothieno[2,3-d]pyrimidin-2-yl]propionic acid] gave a melting point of 135 °C. The same measure for `CCCc1nn(C)c2c(NCc3ccc(OC)c(Cl)c3)nc(CCC(=O)O)nc12` [Example 2 (formula I), 3-[7-(3-chloro-4-methoxybenzylamino)-1-methyl-3-propyl-1H-pyrazolo-[4,3-d]pyrimidin-5-yl]propionic acid]: 178 °C; for `COc1ccc(CNc2nc(CCC(=O)O)nc3sc4c(c23)CCCC4)cc1Cl` [Example 2 (formula I-I), 3-[4-(3-chloro-4-methoxybenzylamino)-5,6,7,8-tetrahydro-[1]-benzothieno[2,3-d]pyrimidin-2-yl]propionic acid]: 229 °C; for `COc1ccc(CNc2nc(CCC(=O)O)nc3sc4ccccc4c23)cc1Cl` [Example 2 (formula I-II), 3-[4-(3-chloro-4-methoxybenzylamino)benzothieno[2,3-d]pyrimidin-2-yl]propionic acid]: 218 °C.

`COC(=O)c1ccc(-c2nc(NCc3ccc(OC)c(Cl)c3)c3c(n2)sc2ccccc23)cc1` [Example 3 (formula I-II), methyl 4-[4-(3-chloro-4-methoxybenzylamino)-[1]-benzothieno[2,3-d]pyrimidin-2-yl]benzoate]: the melting point is 203 to 204 °C.
